Measurements reported in patent publication US9446039B2, “Aminoheteroaryl compounds as MTH1 inhibitors” (CEMM—FORSCHUNGSZENTRUM FÜR MOLEKULARE MEDIZIN GMBH, priority 2012, dated 2016).

What was measured:
[1] = biological target: T1, SW480 colon carcinoma cells lysate proteins (Homo sapiens, UniProt P06454); assay type: binding; settings: PreyGene PTMA
T1 sequence (P06454 1-111): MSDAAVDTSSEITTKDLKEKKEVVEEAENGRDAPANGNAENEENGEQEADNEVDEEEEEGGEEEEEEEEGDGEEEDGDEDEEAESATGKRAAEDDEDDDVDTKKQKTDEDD

[2] = biological target: T2, SW480 colon carcinoma cells lysate proteins (Homo sapiens, UniProt P08758); assay type: binding; settings: PreyGene ANXA5
T2 sequence (P08758 1-320): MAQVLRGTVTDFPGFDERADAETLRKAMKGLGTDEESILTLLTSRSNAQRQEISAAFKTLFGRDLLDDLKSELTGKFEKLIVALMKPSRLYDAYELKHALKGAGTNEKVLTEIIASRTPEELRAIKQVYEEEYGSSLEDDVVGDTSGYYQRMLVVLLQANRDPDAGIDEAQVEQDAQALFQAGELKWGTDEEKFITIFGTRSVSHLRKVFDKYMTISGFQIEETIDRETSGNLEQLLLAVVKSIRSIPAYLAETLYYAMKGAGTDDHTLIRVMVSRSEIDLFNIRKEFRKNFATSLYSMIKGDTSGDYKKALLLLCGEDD

[3] = biological target: SW480 colon carcinoma cells lysate proteins (Homo sapiens, UniProt P10412); assay type: binding; settings: PreyGene HIST1H1E
[4] = biological target: SW480 colon carcinoma cells lysate proteins (Homo sapiens, UniProt P15531); assay type: binding; settings: PreyGene NME1
[5] = biological target: SW480 colon carcinoma cells lysate proteins (Homo sapiens, UniProt P30040); assay type: binding; settings: PreyGene ERP29
[6] = biological target: SW480 colon carcinoma cells lysate proteins (Homo sapiens, UniProt P30086); assay type: binding; settings: PreyGene PEBP1
[7] = biological target: T3, SW480 colon carcinoma cells lysate proteins (Homo sapiens, UniProt Q04837); assay type: binding; settings: PreyGene SSBP1; SW480 cells
T3 sequence (Q04837 17-148): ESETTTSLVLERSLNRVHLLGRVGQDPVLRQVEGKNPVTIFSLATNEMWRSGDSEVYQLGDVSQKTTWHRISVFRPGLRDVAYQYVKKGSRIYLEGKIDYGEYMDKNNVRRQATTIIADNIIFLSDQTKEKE

[8] = biological target: SW480 colon carcinoma cells lysate proteins (Homo sapiens, UniProt Q13576); assay type: binding; settings: PreyGene IQGAP2
[9] = biological target: T4, SW480 colon carcinoma cells lysate proteins (Homo sapiens, UniProt Q15691); assay type: binding; settings: PreyGene MAPRE1
T4 sequence (Q15691 1-268): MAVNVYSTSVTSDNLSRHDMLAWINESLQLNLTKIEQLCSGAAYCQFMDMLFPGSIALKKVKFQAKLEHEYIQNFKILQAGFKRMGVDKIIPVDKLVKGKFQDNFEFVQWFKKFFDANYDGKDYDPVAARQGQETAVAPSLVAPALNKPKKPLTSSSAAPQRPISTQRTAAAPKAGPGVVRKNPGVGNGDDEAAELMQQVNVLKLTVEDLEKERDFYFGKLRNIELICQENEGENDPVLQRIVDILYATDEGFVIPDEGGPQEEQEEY

[10] = biological target: SW480 colon carcinoma cells lysate proteins (Homo sapiens, UniProt Q9BVA1); assay type: binding; settings: PreyGene TUBB2B; SW480 cells
[11] = test system: SW480 colon carcinoma cells lysate proteins; assay type: binding, human; settings: PreyGene EIF3C, EIF3CL; SW480 cells

Sequence of SW480 colon carcinoma cells lysate proteins (Homo sapiens, UniProt P15531) (P15531 whole entry): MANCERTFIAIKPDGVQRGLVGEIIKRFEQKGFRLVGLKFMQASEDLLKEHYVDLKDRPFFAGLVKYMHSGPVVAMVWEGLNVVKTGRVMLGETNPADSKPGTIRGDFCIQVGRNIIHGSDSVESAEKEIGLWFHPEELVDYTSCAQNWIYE
Sequence of SW480 colon carcinoma cells lysate proteins (Homo sapiens, UniProt Q9BVA1) (Q9BVA1 whole entry): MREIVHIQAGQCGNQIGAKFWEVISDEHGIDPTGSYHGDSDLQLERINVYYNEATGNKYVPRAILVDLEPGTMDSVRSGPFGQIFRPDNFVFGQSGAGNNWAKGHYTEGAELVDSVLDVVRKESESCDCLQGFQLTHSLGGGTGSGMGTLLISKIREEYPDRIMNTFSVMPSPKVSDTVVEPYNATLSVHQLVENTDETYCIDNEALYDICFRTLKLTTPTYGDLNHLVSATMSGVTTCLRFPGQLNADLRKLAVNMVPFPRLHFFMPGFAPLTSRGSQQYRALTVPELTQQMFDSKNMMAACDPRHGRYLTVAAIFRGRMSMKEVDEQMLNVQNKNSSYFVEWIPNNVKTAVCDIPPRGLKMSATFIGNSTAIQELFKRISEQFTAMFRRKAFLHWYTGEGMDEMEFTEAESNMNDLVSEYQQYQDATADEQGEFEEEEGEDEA
Sequence of SW480 colon carcinoma cells lysate proteins (Homo sapiens, UniProt P10412) (P10412 whole entry): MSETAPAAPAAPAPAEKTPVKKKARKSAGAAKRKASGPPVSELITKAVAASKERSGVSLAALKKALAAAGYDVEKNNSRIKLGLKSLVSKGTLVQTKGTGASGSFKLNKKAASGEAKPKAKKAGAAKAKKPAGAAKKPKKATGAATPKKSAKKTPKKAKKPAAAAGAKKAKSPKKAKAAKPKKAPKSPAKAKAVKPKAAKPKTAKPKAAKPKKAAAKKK
Sequence of SW480 colon carcinoma cells lysate proteins (Homo sapiens, UniProt P30086) (P30086 whole entry): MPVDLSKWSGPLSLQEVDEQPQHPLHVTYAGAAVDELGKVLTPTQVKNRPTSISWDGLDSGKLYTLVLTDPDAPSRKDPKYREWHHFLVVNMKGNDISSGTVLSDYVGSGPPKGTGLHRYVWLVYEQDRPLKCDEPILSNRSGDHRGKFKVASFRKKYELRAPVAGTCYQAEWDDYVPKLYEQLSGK
Sequence of SW480 colon carcinoma cells lysate proteins (Homo sapiens, UniProt Q13576) (Q13576 whole entry): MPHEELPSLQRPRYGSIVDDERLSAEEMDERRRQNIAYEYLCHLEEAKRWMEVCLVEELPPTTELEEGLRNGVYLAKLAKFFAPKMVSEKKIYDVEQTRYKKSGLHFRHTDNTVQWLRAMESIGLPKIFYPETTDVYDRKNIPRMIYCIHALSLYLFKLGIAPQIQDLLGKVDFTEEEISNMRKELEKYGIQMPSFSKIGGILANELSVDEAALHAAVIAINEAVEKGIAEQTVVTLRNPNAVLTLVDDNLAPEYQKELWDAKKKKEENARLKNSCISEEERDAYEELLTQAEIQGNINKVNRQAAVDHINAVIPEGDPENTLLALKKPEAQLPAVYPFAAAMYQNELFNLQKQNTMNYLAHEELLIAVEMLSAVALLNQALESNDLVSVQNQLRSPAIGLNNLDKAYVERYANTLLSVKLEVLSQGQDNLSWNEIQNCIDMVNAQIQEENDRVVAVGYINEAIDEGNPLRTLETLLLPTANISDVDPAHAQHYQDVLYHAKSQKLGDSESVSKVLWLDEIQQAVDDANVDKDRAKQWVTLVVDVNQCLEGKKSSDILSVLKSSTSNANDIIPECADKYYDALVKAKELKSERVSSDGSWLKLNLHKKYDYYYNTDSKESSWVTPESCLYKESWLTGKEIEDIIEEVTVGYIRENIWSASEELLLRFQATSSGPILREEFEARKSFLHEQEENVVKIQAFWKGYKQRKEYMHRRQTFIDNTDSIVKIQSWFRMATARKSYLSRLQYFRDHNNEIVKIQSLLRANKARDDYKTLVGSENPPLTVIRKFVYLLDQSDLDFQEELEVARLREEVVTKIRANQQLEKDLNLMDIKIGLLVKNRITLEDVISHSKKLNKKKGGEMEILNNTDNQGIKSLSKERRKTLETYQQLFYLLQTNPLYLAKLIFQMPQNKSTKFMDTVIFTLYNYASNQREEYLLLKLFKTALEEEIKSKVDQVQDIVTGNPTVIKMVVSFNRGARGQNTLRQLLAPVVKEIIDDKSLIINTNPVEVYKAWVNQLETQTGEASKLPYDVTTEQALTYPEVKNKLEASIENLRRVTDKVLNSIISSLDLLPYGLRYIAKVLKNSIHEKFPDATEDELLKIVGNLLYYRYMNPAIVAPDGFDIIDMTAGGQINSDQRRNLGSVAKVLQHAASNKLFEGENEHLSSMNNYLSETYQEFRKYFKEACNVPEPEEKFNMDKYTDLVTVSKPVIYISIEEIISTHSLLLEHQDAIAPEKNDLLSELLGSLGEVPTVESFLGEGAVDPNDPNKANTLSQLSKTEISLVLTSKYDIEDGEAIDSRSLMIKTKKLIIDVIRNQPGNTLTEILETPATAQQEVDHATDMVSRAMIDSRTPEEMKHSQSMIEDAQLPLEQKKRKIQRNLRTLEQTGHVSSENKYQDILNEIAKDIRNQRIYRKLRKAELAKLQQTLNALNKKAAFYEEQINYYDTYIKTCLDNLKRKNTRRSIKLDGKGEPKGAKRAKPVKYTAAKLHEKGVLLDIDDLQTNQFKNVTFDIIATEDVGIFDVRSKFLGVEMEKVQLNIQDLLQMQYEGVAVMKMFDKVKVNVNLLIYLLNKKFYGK

C[C@H](Oc1cc(-c2cnn(C3CCNCC3)c2)cnc1N)c1c(Cl)ccc(F)c1Cl [(5)-crizotinib]
AvgP [1]: 0.3707 | SC.Exp. 1-1 [1]: 2 | SC.Exp. 1-2 [1]: 2 | SC.Exp. 2-1 [1]: 0 | SC.Exp. 2-2 [1]: 0 | Sum (SC.Exp.) [1]: 4 | AvgP [2]: 0.4332 | SC.Exp. 1-1 [2]: 9 | SC.Exp. 1-2 [2]: 6 | SC.Exp. 2-1 [2]: 0 | SC.Exp. 2-2 [2]: 0 | Sum (SC.Exp.) [2]: 15 | AvgP [3]: 0.2298 | SC.Exp. 1-1 [3]: 0 | SC.Exp. 1-2 [3]: 2 | SC.Exp. 2-1 [3]: 0 | SC.Exp. 2-2 [3]: 2 | Sum (SC.Exp.) [3]: 4 | AvgP [4]: 0.4442 | SC.Exp. 1-1 [4]: 6 | SC.Exp. 1-2 [4]: 4 | SC.Exp. 2-1 [4]: 0 | SC.Exp. 2-2 [4]: 0 | Sum (SC.Exp.) [4]: 10 | AvgP [5]: 0.1841 | SC.Exp. 1-1 [5]: 2 | SC.Exp. 1-2 [5]: 0 | SC.Exp. 2-1 [5]: 0 | SC.Exp. 2-2 [5]: 0 | Sum (SC.Exp.) [5]: 2 | AvgP [6]: 0.3266 | SC.Exp. 1-1 [6]: 3 | SC.Exp. 1-2 [6]: 3 | SC.Exp. 2-1 [6]: 0 | SC.Exp. 2-2 [6]: 0 | Sum (SC.Exp.) [6]: 6 | AvgP [7]: 0 | SC.Exp. 1-1 [7]: 1 | SC.Exp. 1-2 [7]: 1 | SC.Exp. 2-1 [7]: 0 | SC.Exp. 2-2 [7]: 0 | SC.Exp. Sum [7]: 2 | AvgP [8]: 0.4584 | SC.Exp. 1-1 [8]: 9 | SC.Exp. 1-2 [8]: 9 | SC.Exp. 2-1 [8]: 0 | SC.Exp. 2-2 [8]: 0 | Sum (SC.Exp.) [8]: 18 | AvgP [9]: 0.4084 | SC.Exp. 1-1 [9]: 2 | SC.Exp. 1-2 [9]: 3 | SC.Exp. 2-1 [9]: 0 | SC.Exp. 2-2 [9]: 0 | Sum (SC.Exp.) [9]: 5 | AvgP [10]: 0 | SC.Exp. 1-1 [10]: 4 | SC.Exp. 1-2 [10]: 3 | SC.Exp. 2-1 [10]: 1 | SC.Exp. 2-2 [10]: 2 | SC.Exp. Sum [10]: 10 | AvgP [11]: 0 | SC.Exp. 1-1 [11]: 4 | SC.Exp. 1-2 [11]: 6 | SC.Exp. 2-1 [11]: 7 | SC.Exp. 2-2 [11]: 7 | SC.Exp. Sum [11]: 24
